Experimental data: US20100298557A1, “PYRAZOLOPYRIMIDINE COMPOUND” (Taisho Pharmaceutical Co., Ltd, priority 2006, published 2010)

Assays:
[1] = system: Human mast cell line LAD cells; assay: Degranulation test using human mast cell line LAD cells; type: cell-based; conditions: IgE-sensitized LAD cells, anti-human IgE stimulation, β-hexosaminidase release, read-out: degranulation inhibitory activity IC50
Method: Human mast cell line LAD cells were sensitized with human IgE (Cosmo Bio; final concentration 1 μg/ml) overnight. The cells were harvested, and then washed with PBS (Invitrogen) and washed again with Tyrode's buffer solution (Sigma) containing 0.1% BSA (Sigma). The cells were seeded into a 96-well plate at 10^5 cells/well and then the compound (0.1% final concentration DMSO solution) was added, followed by incubation at 37° C. for 15 minutes. Rabbit anti-human IgE (Dako Japan; final concentration 10 μg/ml) or control Ig (Dako Japan; final concentration 10 μg/ml) was added, followed by incubation at 37° C. for 30 minutes. The supernatant was recovered and p-nitrophenyl-2-acetamido-2-deoxy-β-D-glucopyranoside (Sigma; final concentration 4 mM), a substrate of β-hexosaminidase which is an index of degranulation, was added, followed by incubation at 37° C. for 45 minutes. Glycine (Wako; final concentration 0.2 M, pH 10.4) was added and the reaction was terminated. Then, the absorbance at 405 nm was measured.
The inhibition rate (%) was calculated as (anti-IgE antibody degranulation rate—compound-added group degranulation rate)/(anti-IgE antibody degranulation rate—control antibody degranulation rate)×100. The IC50 value was calculated from the inhibition rate at each concentration and used as an index of inhibitory activity.

[2] = biological target: T1, Abl (Homo sapiens, UniProt P00519); assay: Abl inhibition test; type: biochemical; conditions: Abltide substrate, ATP 6 μM, [γ-33P]ATP, 40 minutes room temperature; read-out: Abl inhibitory activity IC50
T1 construct: purchased Wako Pure Chemical Industries
Method: 5 ng/5 μl/well of an Abl (Wako Pure Chemical Industries) solution, 30 μl of an Abltide substrate peptide solution (Wako Pure Chemical Industries; final concentration 5 μM) and 5 μl of a test substance solution were added to a 96-well plate (Corning), followed by incubation at room temperature for 15 minutes. Then, 10 μl of an ATP mixture (ATP: Oriental Yeast, final concentration 6 μM, [γ-33P]ATP: GE Healthcare Biosciences, 0.06 μCi/well, MgAcetate: Cosmo Bio, final concentration 10 mM) was added, followed by incubation at room temperature for 40 minutes. The Abl solution was prepared using a kinase buffer (20 mM MOPS pH 7.0, 1 mM EDTA, 0.1% β-mercaptoethanol, 0.01% Brij-35, 5% glycerol, 1 mg/ml BSA). The substrate peptide solution and the ATP mixture were prepared using 8 mM MOPS pH 7.0 and 0.2 mM
EDTA. The test substance solution was made by dissolving the test substance in DMSO at each concentration. The final concentration of DMSO was 1%. The reaction was terminated by adding 100 μl of a 100 mM phosphoric acid solution as a reaction terminator. Then, the total reaction solution was transferred to a 96-well MultiScreen plate (Millipore) and washed with 200 μl of 100 mM phosphoric acid three times. After drying, 20 μl of MicroScint-O (PerkinElmer) was added and the radioactivity was measured by TopCount (PerkinElmer). After subtracting the radioactivity in the well to which the Abltide substrate peptide was not added from each radioactivity, the ratio of the radioactivity when the test substance was added to the radioactivity when the test substance was not added was determined. The IC50 value was calculated from the inhibition rate at each concentration and used as an index of inhibitory activity.

[3] = biological target: T2, Syk (Homo sapiens, UniProt P43405); assay: Syk inhibition test; type: biochemical; conditions: poly(L-glu-L-tyr) substrate, ATP 5 μM, [γ-33P]ATP, 30 minutes room temperature; read-out: Syk inhibitory activity IC50
T2 construct: purchased Wako Pure Chemical Industries
Method: 10 ng/10 μl/well of a Syk (Wako Pure Chemical Industries) solution, 15 μl of a poly(L-glu-L-tyr) substrate peptide solution (Sigma, final concentration 5 μM), 20 μl of an ATP mixture (ATP: Oriental Yeast, final concentration 5 μM, [γ-33P]ATP: GE Healthcare Biosciences, 0.1 μCi/well) and 5 μl of a test substance solution were added to a 96-well Corning reaction plate, followed by incubation at room temperature for 30 minutes. An assay buffer containing 50 mM Tris pH 7.5, 10 mM MgCl2, 0.1 mM Na3VO4, 1 mM DTT, 0.01% CHAPS and 100 μg/ml BSA was used. The test substance solution was made by dissolving the test substance in DMSO at each concentration. The final concentration of DMSO was 1%. The reaction was terminated by adding 100 μl of a 120 mM phosphoric acid solution as a reaction terminator. Then, the total reaction solution was transferred to MultiScreen (Millipore) and washed with 200 μl of 100 mM phosphoric acid four times.
After drying, 20 μl of MicroScint-O (PerkinElmer) was added and the radioactivity was measured by TopCount (PerkinElmer). The ratio of the radioactivity when the test substance was added to the radioactivity when the test substance was not added was determined. The IC50 value was calculated from the inhibition rate at each concentration and used as an index of inhibitory activity.

T1 sequence (P00519 whole entry, species assumed): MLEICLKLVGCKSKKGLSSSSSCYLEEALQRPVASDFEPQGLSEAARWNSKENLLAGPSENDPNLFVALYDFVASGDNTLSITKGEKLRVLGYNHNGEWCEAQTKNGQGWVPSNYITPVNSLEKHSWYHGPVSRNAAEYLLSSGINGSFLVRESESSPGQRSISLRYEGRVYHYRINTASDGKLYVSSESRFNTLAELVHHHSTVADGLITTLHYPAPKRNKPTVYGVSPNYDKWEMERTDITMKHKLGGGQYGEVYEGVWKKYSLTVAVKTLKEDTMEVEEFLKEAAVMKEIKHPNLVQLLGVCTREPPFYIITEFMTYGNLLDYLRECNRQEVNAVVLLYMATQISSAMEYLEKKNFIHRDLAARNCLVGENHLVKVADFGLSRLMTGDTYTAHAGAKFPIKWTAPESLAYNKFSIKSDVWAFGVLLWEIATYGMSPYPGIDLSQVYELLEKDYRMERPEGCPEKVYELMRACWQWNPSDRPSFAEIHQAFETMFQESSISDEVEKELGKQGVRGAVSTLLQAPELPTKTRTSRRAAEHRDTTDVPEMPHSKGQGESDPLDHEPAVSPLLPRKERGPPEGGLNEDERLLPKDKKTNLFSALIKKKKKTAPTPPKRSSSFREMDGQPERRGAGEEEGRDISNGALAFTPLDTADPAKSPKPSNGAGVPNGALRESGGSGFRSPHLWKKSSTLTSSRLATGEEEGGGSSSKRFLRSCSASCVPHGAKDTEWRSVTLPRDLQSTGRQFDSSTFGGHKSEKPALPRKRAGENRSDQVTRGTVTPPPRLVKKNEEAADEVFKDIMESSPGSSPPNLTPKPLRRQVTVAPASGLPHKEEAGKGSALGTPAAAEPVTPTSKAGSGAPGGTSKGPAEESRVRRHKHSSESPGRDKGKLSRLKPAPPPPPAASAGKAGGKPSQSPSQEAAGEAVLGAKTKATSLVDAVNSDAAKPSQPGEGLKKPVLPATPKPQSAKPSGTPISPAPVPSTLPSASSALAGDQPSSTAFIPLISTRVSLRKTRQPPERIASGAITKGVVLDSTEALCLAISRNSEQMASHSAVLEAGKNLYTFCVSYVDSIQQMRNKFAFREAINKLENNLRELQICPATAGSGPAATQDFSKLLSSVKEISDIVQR

Structure (SMILES)	IC50 [1]	IC50 [2]	IC50 [3]
CSc1n[nH]c2nc(Nc3ccc(N4CCOCC4)cc3)nc(NC3CC3)c12 [Compound 13, N^4-Cyclopropyl-3-(methylsulfanyl)-N^6-(4-morpholin-4-ylphenyl)-1H-pyrazolo[3,4-d]pyrimidine-4,6-diamine]	≤ 0.1 µM		
CSc1n[nH]c2nc(Nc3ccc(N4CCOCC4)cc3)nc(Nc3ccc4cn[nH]c4c3)c12 [Compound 206]		≤ 0.05 µM	
N[C@H]1CC[C@@H](Nc2nc(Nc3ccc(N4CCOCC4)cc3)nc3[nH]ncc23)CC1 [Compound 216, N^4-(cis-4-Aminocyclohexyl)-N^6-(4-morpholinophenyl)-1H-pyrazolo[3,4-d]pyrimidine-4,6-diamine]		≤ 0.01 µM	
CCSc1n[nH]c2nc(Nc3ccc(N4CCOCC4)cc3)nc(N[C@H]3CC[C@H](N)CC3)c12 [Compound 115]		≤ 0.01 µM	≤ 0.2 µM
CC(C)Sc1n[nH]c2nc(Nc3ccc(N4CCOCC4)cc3)nc(N[C@H]3CC[C@@H](N)CC3)c12 [Compound 119]		≤ 0.01 µM	
CS(=O)(=O)c1n[nH]c2nc(Nc3ccc(N4CCS(=O)(=O)CC4)cc3)nc(NC3CC3)c12 [Compound 134]	≤ 0.1 µM	≤ 0.01 µM	≤ 0.2 µM
CS(=O)(=O)c1n[nH]c2nc(Nc3ccc4[nH]cnc4c3)nc(NC3CC3)c12 [Compound 21]		≤ 0.05 µM	
CNC(=O)COc1cccc(Nc2nc(NC3CC3)c3c(S(C)(=O)=O)n[nH]c3n2)c1 [Compound 150]		≤ 0.05 µM	
CS(=O)(=O)c1n[nH]c2nc(Nc3ccc(N4CCCC(C(N)=O)C4)cc3)nc(NC3CC3)c12 (stereo not shown) [Compound 132]		≤ 0.01 µM	
CS(=O)(=O)c1n[nH]c2nc(Nc3ccc(N4CCOCC4)cc3)nc(NCCCCN)c12 [Compound 107]	≤ 0.1 µM	≤ 0.05 µM	≤ 0.2 µM
CSc1n[nH]c2nc(Nc3ccc(N4CCOCC4)cc3)nc(Nc3ccc4[nH]c(O)nc4c3)c12 [Compound 208]		≤ 0.05 µM	
CS(=O)(=O)c1n[nH]c2nc(Nc3ccc(N4CCNCC4)cc3)nc(NC3CC3)c12 [Compound 74]	≤ 0.1 µM	≤ 0.01 µM	≤ 0.2 µM
CNCCCCNc1nc(Nc2ccc(N3CCOCC3)cc2)nc2[nH]nc(SC)c12 [Compound 116]		≤ 0.05 µM	
CS(=O)(=O)c1n[nH]c2nc(Nc3ccc(N4CCOCC4)cc3)nc(N[C@H]3CC[C@@H](N)CC3)c12 [Compound 117, N^4-(cis-4-Aminocyclohexyl)-3-(methylsulfonyl)-N^6-(4-morpholin-4-ylphenyl)-1H-pyrazolo[3,4-d]pyrimidine-4,6-diamine]		≤ 0.01 µM	
CCSc1n[nH]c2nc(Nc3ccc(N4CCOCC4)cc3)nc(NC3CC3)c12 [Compound 108]		≤ 0.05 µM	
CS(=O)(=O)c1n[nH]c2nc(Nc3ccc(N4CCOCC4)cc3)nc(NCCCC(N)=O)c12 [Compound 60]		≤ 0.05 µM	
CS(=O)(=O)c1n[nH]c2nc(Nc3ccc(N4CCN(S(C)(=O)=O)CC4)cc3)nc(NC3CC3)c12 [Compound 146]		≤ 0.01 µM	≤ 0.2 µM
CS(=O)(=O)c1n[nH]c2nc(Nc3ccc(N4CCC(CO)CC4)cc3)nc(NC3CC3)c12 [Compound 126]		≤ 0.01 µM	
CS(=O)(=O)c1n[nH]c2nc(Nc3ccc(-c4ccc(C(=O)O)cc4)cc3)nc(NC3CC3)c12 [Compound 227]		≤ 0.05 µM	
Cc1cc(Nc2nc(NC3CC3)c3c(S(C)(=O)=O)n[nH]c3n2)ccc1N1CCOCC1 [Compound 38]		≤ 0.05 µM	

Structure (SMILES)	IC50 [1]	IC50 [2]	IC50 [3]
CS(=O)(=O)c1n[nH]c2nc(Nc3ccc(N4CCCC(CO)C4)cc3)nc(NC3CC3)c12 (stereo not shown) [Compound 130]	≤ 0.1 µM	≤ 0.01 µM	≤ 0.2 µM
CCN1CCN(c2ccc(Nc3nc(NC4CC4)c4c(S(C)(=O)=O)n[nH]c4n3)cc2)CC1 [Compound 135]	≤ 0.1 µM		≤ 0.2 µM
CSc1n[nH]c2nc(Nc3ccc(N4CCOCC4)cc3)nc(NCCCCN)c12 [Compound 102]	≤ 0.1 µM	≤ 0.05 µM	≤ 0.2 µM
CNS(=O)(=O)c1ccc(Nc2nc(NC3CC3)c3c(S(C)(=O)=O)n[nH]c3n2)cc1 [Compound 152]		≤ 0.01 µM	
CSc1n[nH]c2nc(Nc3ccc(N4CCOCC4)cc3)nc(Nc3ccc4nc[nH]c4c3)c12 [Compound 192]		≤ 0.05 µM	
CSc1n[nH]c2nc(Nc3ccc(N4CCOCC4)cc3)nc(NCCCCCN)c12 [Compound 110]		≤ 0.05 µM	
CS(=O)(=O)c1n[nH]c2nc(Nc3ccc(N4CCC(=O)CC4)cc3)nc(NC3CC3)c12 [Compound 88]	≤ 0.1 µM		
CC(C)N1CCN(c2ccc(Nc3nc(NC4CC4)c4c(S(C)(=O)=O)n[nH]c4n3)cc2)CC1 [Compound 138]	≤ 0.1 µM		≤ 0.2 µM
C[S+]([O-])c1n[nH]c2nc(Nc3ccc(N4CCOCC4)cc3)nc(NC3CC3)c12 (stereo not shown) [Compound 4, N^4-Cyclopropyl-3-(methylsulfinyl)-N^6-(4-morpholin-4-ylphenyl)-1H-pyrazolo[3,4-d]pyrimidine-4,6-diamine]	≤ 0.1 µM		
CSc1n[nH]c2nc(Nc3ccc(N4CCOCC4)cc3)nc(N[C@H]3CC[C@@H](N)CC3)c12 [Compound 112]	0.019 µM	≤ 0.01 µM	0.02 µM
CC1CN(C(=O)c2ccc(Nc3nc(NC4CC4)c4c(S(C)(=O)=O)n[nH]c4n3)cc2)CC(C)O1 (stereo not shown) [Compound 240]		≤ 0.05 µM	
CN(C)C(=O)C1CCN(c2ccc(Nc3nc(NC4CC4)c4c(S(C)(=O)=O)n[nH]c4n3)cc2)CC1 [Compound 128]	≤ 0.1 µM	≤ 0.05 µM	≤ 0.2 µM
CC(C)(C)Nc1nc(Nc2ccc(N3CCOCC3)cc2)nc2[nH]nc(S(C)(=O)=O)c12 [Compound 55]		≤ 0.01 µM	
CSc1n[nH]c2nc(Nc3ccc(N4CCOCC4)cc3)nc(NCCc3c[nH]cn3)c12 [Compound 200]		≤ 0.01 µM	
CS(=O)(=O)c1n[nH]c2nc(Nc3ccc(N4CCOCC4)cc3)nc(NC3CCCC3)c12 [Compound 103]		≤ 0.05 µM	
N[C@H]1CC[C@@H](Oc2nc(Nc3ccc(N4CCOCC4)cc3)nc3[nH]ncc23)CC1 [Compound 217, cis-4-(4-Aminocyclohexyloxy)-N-(4-morpholinophenyl)-1H-pyrazolo[3,4-d]pyrimidin-6-amine]		≤ 0.01 µM	
CS(=O)(=O)c1n[nH]c2nc(Nc3ccc(N4CCCC(C(=O)N5CCOCC5)C4)cc3)nc(NC3CC3)c12 (stereo not shown) [Compound 143]	≤ 0.1 µM	≤ 0.01 µM	≤ 0.2 µM
CS(=O)(=O)c1n[nH]c2nc(Nc3ccc(N4CCCC(O)C4)cc3)nc(NC3CC3)c12 (stereo not shown) [Compound 78]		≤ 0.01 µM	
CCSc1n[nH]c2nc(Nc3ccc(N4CCOCC4)cc3)nc(NCCCCN)c12 [Compound 114]		≤ 0.05 µM	≤ 0.2 µM
CS(=O)(=O)c1n[nH]c2nc(Nc3ccc(N4CCOCC4)cc3)nc(Nc3ccccc3C(N)=O)c12 [Compound 188]		≤ 0.05 µM	
